A short description of the data set: PK measurements for half life assessment in pigs. It is filed as in vivo, pig. Conditions: plasma, single subcutaneous injection, time from tmax to half of Cmax, typically mean of four animals; for half-life: male, large white, pig, sc. The protocol: Male large white pigs receive a single subcutaneous injection of the test compound at the start of study (0 hours). Repeated blood samples were taken from the pig over the proceeding 168 hours and plasma separated and stored at −20 to −80° C. Plasma concentration of the test compound was quantified using a radioimmunoassay or mass spectrum analysis. Time taken from tmax to half of Cmax was calculated and represents the half-life (t½) of the compound. Typically, the presented t½ is the mean of four separate animals.

Consider nine compounds from patent US12516095B2, “Peptide hormone analogues” (IP2IPO INNOVATIONS LIMITED, priority 2019, dated 2026).

Starred links: 1 amine or outer side, 2 acyl side, 3 side chain; linkers in the order of their positions; H or OH if unused. Non-standard residues stand in square brackets, D forms with d. Residues, ends and D or L forms follow the SMILES beside them. Groups on a side chain read outwards from the residue. *: point of attachment. C20 diacid = O=C(O)CCCCCCCCCCCCCCCCCCC(=O)*; C18 diacid = O=C(O)CCCCCCCCCCCCCCCCC(=O)*; γGlu = O=C(O)[C@H](CCC(=O)[*:2])N[*:1]; Aib = CC(C)(N)C(=O)O

Regarding `CC[C@H](C)[C@H](NC(=O)[C@H](Cc1ccccc1)NC(=O)[C@H](CCC(=O)O)NC(=O)[C@H](CCC(N)=O)NC(=O)[C@H](C)NC(=O)[C@H](CCCNC(=N)N)NC(=O)[C@H](CCCCN)NC(=O)[C@H](C)NC(=O)[C@H](CC(=O)O)NC(=O)[C@H](CC(C)C)NC(=O)[C@H](Cc1ccc(O)cc1)NC(=O)[C@H](CCCCN)NC(=O)[C@H](CO)NC(=O)[C@H](Cc1ccc(O)cc1)NC(=O)[C@H](CC(=O)O)NC(=O)[C@H](CO)NC(=O)[C@@H](NC(=O)[C@H](Cc1ccccc1)NC(=O)[C@@H](NC(=O)CNC(=O)[C@H](Cc1c[nH]cn1)NC(=O)C(C)(C)NC(=O)[C@@H](N)Cc1c[nH]cn1)[C@@H](C)O)[C@@H](C)O)C(=O)N[C@@H](CCC(=O)O)C(=O)N[C@@H](Cc1c[nH]c2ccccc12)C(=O)N[C@@H](CC(C)C)C(=O)N[C@@H](CC(C)C)C(=O)N[C@@H](CCC(N)=O)C(=O)N[C@@H](CO)C(=O)N[C@@H](Cc1c[nH]cn1)C(=O)N[C@@H](Cc1c[nH]cn1)C(=O)N[C@@H](CCC(N)=O)C(=O)N[C@@H](CCC(N)=O)C(=O)N[C@@H](Cc1c[nH]cn1)C(=O)N[C@@H](CCC(=O)O)C(=O)N[C@@H](CO)C(=O)N1CCC[C@H]1C(=O)N1CCC[C@H]1C(=O)N1CCC[C@H]1C(=O)N[C@@H](CCCCNC(=O)[C@H](Cc1c[nH]cn1)NC(=O)[C@H](CC(N)=O)NC(=O)CC[C@H](NC(=O)CCCCCCCCCCCCCCCCC(=O)O)C(=O)O)C(=O)O` [Example 649] (H-H[Aib]HGTFTSDYSKYLDAKRAQEFIEWLLQSHHQQHESPPPK([His-Asn-γGlu-C18 diacid])-OH), the half-life is 84 h.

“H-H[Aib]HGTFTSDYSKYLDAKRAQEFIEWLLQSHHQQHESPPPGK([γGlu-C20 diacid])-OH [Example 701]” displayed a Half life (male large white pigs) of 66 h.

In the case of “H-H[Aib]HGTFTSDYSKYLDAKRAQEFIEWLLQSHHQQHESPPPGK([γGlu-C20 diacid])-OH [Example 646]”, the half-life was 42 h.

In turn, “H-H[Aib]HGTFTSDYSKYLDAKRAQEFIEWLLQSHQHQHESPPPGK([His-Asn-γGlu-C18 diacid])-OH [Example 640]” had a half-life of 135 h.

In the case of `CC[C@H](C)[C@H](NC(=O)[C@H](Cc1ccccc1)NC(=O)[C@H](CCC(=O)O)NC(=O)[C@H](CCC(N)=O)NC(=O)[C@H](C)NC(=O)[C@H](CCCNC(=N)N)NC(=O)[C@H](CCCCN)NC(=O)[C@H](C)NC(=O)[C@H](CC(=O)O)NC(=O)[C@H](CC(C)C)NC(=O)[C@H](Cc1ccc(O)cc1)NC(=O)[C@H](CCCCN)NC(=O)[C@H](CO)NC(=O)[C@H](Cc1ccc(O)cc1)NC(=O)[C@H](CC(=O)O)NC(=O)[C@H](CO)NC(=O)[C@@H](NC(=O)[C@H](Cc1ccccc1)NC(=O)[C@@H](NC(=O)CNC(=O)[C@H](Cc1c[nH]cn1)NC(=O)C(C)(C)NC(=O)[C@@H](N)Cc1c[nH]cn1)[C@@H](C)O)[C@@H](C)O)C(=O)N[C@@H](CCC(=O)O)C(=O)N[C@@H](Cc1c[nH]c2ccccc12)C(=O)N[C@@H](CC(C)C)C(=O)N[C@@H](CC(C)C)C(=O)N[C@@H](CCC(N)=O)C(=O)N[C@@H](CO)C(=O)N[C@@H](Cc1c[nH]cn1)C(=O)N[C@@H](CCC(N)=O)C(=O)N[C@@H](Cc1c[nH]cn1)C(=O)N1CCC[C@H]1C(=O)N[C@@H](CO)C(=O)N1CCC[C@H]1C(=O)N1CCC[C@H]1C(=O)N1CCC[C@H]1C(=O)N[C@@H](CCCCNC(=O)CC[C@H](NC(=O)CCCCCCCCCCCCCCCCCCC(=O)O)C(=O)O)C(=O)O` [Example 544] (H-H[Aib]HGTFTSDYSKYLDAKRAQEFIEWLLQSHQHPSPPPK([γGlu-C20 diacid])-OH), the half-life was 83 h.

With `CC[C@H](C)[C@H](NC(=O)[C@H](Cc1ccccc1)NC(=O)[C@H](CCC(=O)O)NC(=O)[C@H](Cc1c[nH]cn1)NC(=O)[C@H](C)NC(=O)[C@H](CCCNC(=N)N)NC(=O)[C@H](CCCCN)NC(=O)[C@H](C)NC(=O)[C@H](CC(=O)O)NC(=O)[C@H](CC(C)C)NC(=O)[C@H](Cc1ccc(O)cc1)NC(=O)[C@H](CCCCN)NC(=O)[C@H](CO)NC(=O)[C@H](Cc1ccc(O)cc1)NC(=O)[C@H](CC(=O)O)NC(=O)[C@H](CO)NC(=O)[C@@H](NC(=O)[C@H](Cc1ccccc1)NC(=O)[C@@H](NC(=O)CNC(=O)[C@H](Cc1c[nH]cn1)NC(=O)C(C)(C)NC(=O)[C@@H](N)Cc1c[nH]cn1)[C@@H](C)O)[C@@H](C)O)C(=O)N[C@@H](CCC(=O)O)C(=O)N[C@@H](Cc1c[nH]c2ccccc12)C(=O)N[C@@H](CC(C)C)C(=O)N[C@@H](CC(C)C)C(=O)N[C@@H](CCC(N)=O)C(=O)N[C@@H](CO)C(=O)N[C@@H](Cc1c[nH]cn1)C(=O)N[C@@H](CCC(N)=O)C(=O)N[C@@H](CCC(N)=O)C(=O)N[C@@H](Cc1c[nH]cn1)C(=O)N[C@@H](CCC(=O)O)C(=O)N[C@@H](CO)C(=O)N1CCC[C@H]1C(=O)N1CCC[C@H]1C(=O)N1CCC[C@H]1C(=O)NCC(=O)N[C@@H](CCCCNC(=O)[C@H](CC(N)=O)NC(=O)CC[C@H](NC(=O)CCCCCCCCCCCCCCCCCCC(=O)O)C(=O)O)C(=O)O` [Example 652] (H-H[Aib]HGTFTSDYSKYLDAKRAHEFIEWLLQSHQQHESPPPGK([Asn-γGlu-C20 diacid])-OH), the half-life was 116 h. The half-life values of the last two compounds are within 1.5-fold of each other.

Take `CC[C@H](C)[C@H](NC(=O)[C@H](Cc1ccccc1)NC(=O)[C@H](CCC(=O)O)NC(=O)[C@H](CCCNC(=N)N)NC(=O)[C@H](C)NC(=O)[C@H](CCCNC(=N)N)NC(=O)[C@H](CCCCN)NC(=O)[C@H](C)NC(=O)[C@H](CC(=O)O)NC(=O)[C@H](CC(C)C)NC(=O)[C@H](Cc1ccc(O)cc1)NC(=O)[C@H](CCCCN)NC(=O)[C@H](CO)NC(=O)[C@H](Cc1ccc(O)cc1)NC(=O)[C@H](CC(=O)O)NC(=O)[C@H](CO)NC(=O)[C@@H](NC(=O)[C@H](Cc1ccccc1)NC(=O)[C@@H](NC(=O)CNC(=O)[C@H](Cc1c[nH]cn1)NC(=O)C(C)(C)NC(=O)[C@@H](N)Cc1c[nH]cn1)[C@@H](C)O)[C@@H](C)O)C(=O)N[C@@H](CCC(=O)O)C(=O)N[C@@H](Cc1c[nH]c2ccccc12)C(=O)N[C@@H](CC(C)C)C(=O)N[C@@H](CC(C)C)C(=O)N[C@@H](CCC(N)=O)C(=O)N[C@@H](CO)C(=O)N[C@@H](Cc1c[nH]cn1)C(=O)N[C@@H](CCC(N)=O)C(=O)N[C@@H](CCC(N)=O)C(=O)N[C@@H](Cc1c[nH]cn1)C(=O)N1CCC[C@H]1C(=O)N[C@@H](CO)C(=O)N1CCC[C@H]1C(=O)N1CCC[C@H]1C(=O)N1CCC[C@H]1C(=O)NCC(=O)N[C@@H](CCCCNC(=O)[C@H](CC(N)=O)NC(=O)CC[C@H](NC(=O)CCCCCCCCCCCCCCCCCCC(=O)O)C(=O)O)C(=O)O` [Example 705] (H-H[Aib]HGTFTSDYSKYLDAKRAREFIEWLLQSHQQHPSPPPGK([Asn-γGlu-C20 diacid])-OH): the half-life was 84 h.

Consider `CC[C@H](C)[C@H](NC(=O)[C@H](Cc1ccccc1)NC(=O)[C@H](CCC(=O)O)NC(=O)[C@H](Cc1c[nH]cn1)NC(=O)[C@H](C)NC(=O)[C@H](CCCNC(=N)N)NC(=O)[C@H](CCCCN)NC(=O)[C@H](C)NC(=O)[C@H](CC(=O)O)NC(=O)[C@H](CC(C)C)NC(=O)[C@H](Cc1ccc(O)cc1)NC(=O)[C@H](CCCCN)NC(=O)[C@H](CO)NC(=O)[C@H](Cc1ccc(O)cc1)NC(=O)[C@H](CC(=O)O)NC(=O)[C@H](CO)NC(=O)[C@@H](NC(=O)[C@H](Cc1ccccc1)NC(=O)[C@@H](NC(=O)CNC(=O)[C@H](Cc1c[nH]cn1)NC(=O)C(C)(C)NC(=O)[C@@H](N)Cc1c[nH]cn1)[C@@H](C)O)[C@@H](C)O)C(=O)N[C@@H](CCC(=O)O)C(=O)N[C@@H](Cc1c[nH]c2ccccc12)C(=O)N[C@@H](CC(C)C)C(=O)N[C@@H](CC(C)C)C(=O)N[C@@H](CCC(N)=O)C(=O)N[C@@H](CO)C(=O)N[C@@H](Cc1c[nH]cn1)C(=O)N[C@@H](CCC(N)=O)C(=O)N[C@@H](CCC(N)=O)C(=O)N[C@@H](Cc1c[nH]cn1)C(=O)N[C@@H](CCC(=O)O)C(=O)N[C@@H](CO)C(=O)N1CCC[C@H]1C(=O)N1CCC[C@H]1C(=O)N1CCC[C@H]1C(=O)N[C@@H](CCCCNC(=O)CC[C@H](NC(=O)CCCCCCCCCCCCCCCCCCC(=O)O)C(=O)O)C(=O)O` [Example 588] (H-H[Aib]HGTFTSDYSKYLDAKRAHEFIEWLLQSHQQHESPPPK([γGlu-C20 diacid])-OH), for which the half-life was 65 h.

Consider `CC[C@H](C)[C@H](NC(=O)[C@H](Cc1ccccc1)NC(=O)[C@H](CCC(=O)O)NC(=O)[C@H](Cc1c[nH]cn1)NC(=O)[C@H](C)NC(=O)[C@H](CCCNC(=N)N)NC(=O)[C@H](CCCCN)NC(=O)[C@H](C)NC(=O)[C@H](CC(=O)O)NC(=O)[C@H](CC(C)C)NC(=O)[C@H](Cc1ccc(O)cc1)NC(=O)[C@H](CCCCN)NC(=O)[C@H](CO)NC(=O)[C@H](Cc1ccc(O)cc1)NC(=O)[C@H](CC(=O)O)NC(=O)[C@H](CO)NC(=O)[C@@H](NC(=O)[C@H](Cc1ccccc1)NC(=O)[C@@H](NC(=O)CNC(=O)[C@H](Cc1c[nH]cn1)NC(=O)C(C)(C)NC(=O)[C@@H](N)Cc1c[nH]cn1)[C@@H](C)O)[C@@H](C)O)C(=O)N[C@@H](CCC(=O)O)C(=O)N[C@@H](Cc1c[nH]c2ccccc12)C(=O)N[C@@H](CC(C)C)C(=O)N[C@@H](CC(C)C)C(=O)N[C@@H](CCC(N)=O)C(=O)N[C@@H](CO)C(=O)N[C@@H](Cc1c[nH]cn1)C(=O)N[C@@H](CCC(N)=O)C(=O)N[C@@H](CCC(N)=O)C(=O)N[C@@H](Cc1c[nH]cn1)C(=O)N[C@@H](CO)C(=O)N1CCC[C@H]1C(=O)N1CCC[C@H]1C(=O)N1CCC[C@H]1C(=O)N[C@@H](CCCCNC(=O)[C@H](CO)NC(=O)CNC(=O)CC[C@H](NC(=O)CCCCCCCCCCCCCCCCC(=O)O)C(=O)O)C(=O)O` [Example 507] (H-H[Aib]HGTFTSDYSKYLDAKRAHEFIEWLLQSHQQHSPPPK([Ser-Gly-γGlu-C18 diacid])-OH), for which the half-life is 112 h.

In general, half-life refers to the time needed for the level to fall by half in the phase considered.
